Measurements reported in ChEMBL document CHEMBL2150902, “Novel AI-2 quorum sensing inhibitors in Vibrio harveyi identified through structure-based virtual screening” (Bioorg Med Chem Lett, 2012).

Experiments:
[1] = Inhibition of LuxP/LuxQ mediated AI2-dependent quorum sensing in Vibrio harveyi MM32 incubated for 4 to 6 hrs measured every 30 mins by luminescence assay
[2] = tested on: Vibrio harveyi; test: Growth inhibition of Vibrio harveyi MM32 by spectrophotometry; type: organism-based; settings: in vivo

Compound	IC50 [1]	growth inhibition (GI) [2]
Cn1cnnc1SCC(=O)Nc1nc2ccccc2s1	5.51 µM	Non-toxic
CSc1nccc(Oc2ccccc2Cl)n1	3.42 µM	Non-toxic
CSC1=CS(=O)(=O)c2ccccc21	41 µM	Toxic
Fc1ccccc1-c1ccc(CNCc2ccco2)o1	14.8 µM	Toxic
O=C(O)c1ccc(-c2c(Cl)cc([N+](=O)[O-])cc2Cl)o1	40.1 µM	Non-toxic
C=CCOC(=O)C1=CS(=O)(=O)c2ccccc21	3.06 µM	Toxic
Cc1cc(=O)n2nc(N)c(/N=N/c3ccccc3)c2[nH]1	19.8 µM	Toxic
